Laboratory results from ChEMBL document CHEMBL5120753, “Isolation and biological activity of azocine and azocane alkaloids” (Bioorg Med Chem, 2022).
≈ marks a conversion by molar mass, not a printed value.

Experiments:
[1] = tested on: L1210; test: Cytotoxicity against mouse L1210 cells assessed as cell growth inhibition; assay type: functional, cell-based
[2] = tested on: KB; test: Cytotoxicity against human KB cells assessed as cell growth inhibition; assay type: functional, cell-based
[3] = tested on: B16; test: Cytotoxicity against mouse B16 cells assessed as cell growth inhibition measured after 72 hrs by MTT assay; assay type: functional, cell-based; conditions: B16, 72 h
[4] = Cytotoxicity against multidrug resistant human VJ300 cells expressing P-gp assessed as cell growth inhibition measured after 72 hrs by MTT assay; assay type: functional, cell-based; conditions: VJ-300, 72 h
[5] = Antagonist activity at alpha-adrenergic receptor in rat aortic strips assessed as receptor mediated adrenolytic activity; conditions: read-out: pA2 (converted)
[6] = Antagonist activity at serotonin receptor in rat aortic strips assessed as receptor mediated anti-serotoninergic activity; conditions: read-out: pA2 (converted)
[7] = Toxicity in Artemia salina assessed as mortality at 10 ug/ml measured after 24 hrs by microscopic analysis; conditions: at 10 µg/mL, read-out: Activity
[8] = tested on: U2OS; test: Cytotoxicity against human U2OS cells assessed as cell growth inhibition incubated for 48 hrs by microplate reader based analysis; assay type: functional
[9] = tested on: MG-63; test: Cytotoxicity against human MG-63 cells assessed as cell growth inhibition incubated for 48 hrs by microplate reader based analysis; assay type: functional; conditions: MG-63, 48 h
[10] = Cytotoxicity against human SOSP-9607 cells assessed as cell growth inhibition incubated for 48 hrs by microplate reader based analysis; assay type: functional; conditions: SOSP-9607, 48 h
[11] = tested on: SAOS-2; test: Cytotoxicity against human SAOS-2 cells assessed as cell growth inhibition incubated for 48 hrs by microplate reader based analysis; assay type: functional; conditions: SAOS-2, 48 h
[12] = Toxicity in mouse assessed as lethal dose; conditions: in vivo
[13] = Toxicity in iv dosed rat assessed as lethal dose; conditions: in vivo
[14] = Displacement of [3H]-naloxone from opiate receptor in rat cortical brain membrane assessed as inhibition constant incubated for 30 mins by liquid scintillation counter analysis; assay type: cell membranes
[15] = biological target: T1, Xanthine dehydrogenase/oxidase (Homo sapiens, UniProt P47989); test: Inhibition of xanthine oxidase (unknown origin) at 10 uM using xanthine as substrate
[16] = tested on: P388; test: Cytotoxicity against mouse P388 cells assessed as effective dose; assay type: functional; conditions: read-out: ED50 (the source's name)
[17] = tested on: Mycobacterium tuberculosis; test: Antimycobacterial activity against Mycobacterium tuberculosis H37Rv ATCC 27294 assessed as inhibition of bacterial growth by microplate alamar blue assay; assay type: functional
[18] = Inhibition of human beta-secretase
[19] = biological target: Cholinesterase (Homo sapiens, UniProt P06276); test: Inhibition of human BChE
[20] = tested on: Plasmodium falciparum; test: Antiplasmodial activity against chloroquine-sensitive Plasmodium falciparum 3D7 assessed as cell growth inhibition incubated for 24 hrs by [3H]-hypoxanthine based scintillation counter analysis; assay type: functional, organism-based
[21] = tested on: Plasmodium falciparum; test: Antiplasmodial activity against chloroquine-resistant Plasmodium falciparum W2 assessed as cell growth inhibition incubated for 24 hrs by [3H]-hypoxanthine based scintillation counter analysis; assay type: functional, organism-based
[22] = biological target: Acetylcholinesterase (Homo sapiens, UniProt P22303); test: Inhibition of human acetylcholinesterase
[23] = tested on: B16-F10; test: Induction of nitric oxide production in mouse B16-F10 cells at 1 ug/ml measured after 48 hrs by […] analysis; assay type: functional; conditions: dose 1 µg/ml
[24] = Induction of nitric oxide production in Rabbit aortic endothelial cell at 0.1 ug/ml measured after 48 hrs by […] analysis; assay type: functional, Oryctolagus cuniculus; conditions: dose 0.1 µg/ml
[25] = tested on: Plasmodium falciparum; test: Antiplasmodial activity against Plasmodium falciparum 3D7 infected in human erythrocytes assessed as cell growth inhibition incubated for 72 hrs by parasite lactate dehydrogenase assay; assay type: functional, organism-based; conditions: 3D7, 72 h
[26] = tested on: Mycobacterium tuberculosis; test: Antimycobacterial activity against Mycobacterium tuberculosis H37Rv assessed as inhibition of bacterial growth; assay type: functional
[27] = tested on: Plasmodium falciparum; test: Antimalarial activity against Plasmodium falciparum K1 infected in human RBC assessed as parasite growth inhibition measured after 48 hrs by optical microscopy; assay type: functional, organism-based; conditions: K1, Erythrocyte
[28] = tested on: NIH3T3; test: Cytotoxicity against mouse NIH3T3 cells assessed as cell growth inhibition incubated for 48 hrs by alamar blue dye-based fluorometric analysis; assay type: functional; conditions: NIH3T3, 48 h
[29] = biological target: Polyunsaturated fatty acid 5-lipoxygenase (Homo sapiens) (UniProt P09917); test: Inhibition of 5-LOX (unknown origin) using arachidonic acid as substrate at 100 uM preincubated for 5 mins followed by substrate addition measured after 15 mins by absorbance based analysis relative to control; conditions: time 20.0 min
[30] = biological target: Prostaglandin G/H synthase 2 (Homo sapiens) (UniProt P35354); test: Inhibition of COX-2 (unknown origin) using arachidonic acid as substrate at 100 uM preincubated for 5 mins followed by substrate addition measured after 15 mins by absorbance based analysis relative to control; conditions: time 20.0 min
[31] = Antioxidant activity assessed as DPPH radical scavenging activity; assay type: functional
[32] = Inhibition of urease (unknown origin); parameters: species or system Homo sapiens
[33] = biological target: T1, Xanthine dehydrogenase/oxidase; test: Inhibition of xanthine oxidase (unknown origin)
[34] = biological target: Prostaglandin G/H synthase 1 (Homo sapiens) (UniProt P23219); test: Inhibition of COX-1 (unknown origin) using arachidonic acid as substrate at 100 uM preincubated for 5 mins followed by substrate addition measured after 15 mins by absorbance based analysis relative to control; conditions: time 20.0 min
Sequence of Prostaglandin G/H synthase 1 (Homo sapiens) (P23219 whole entry): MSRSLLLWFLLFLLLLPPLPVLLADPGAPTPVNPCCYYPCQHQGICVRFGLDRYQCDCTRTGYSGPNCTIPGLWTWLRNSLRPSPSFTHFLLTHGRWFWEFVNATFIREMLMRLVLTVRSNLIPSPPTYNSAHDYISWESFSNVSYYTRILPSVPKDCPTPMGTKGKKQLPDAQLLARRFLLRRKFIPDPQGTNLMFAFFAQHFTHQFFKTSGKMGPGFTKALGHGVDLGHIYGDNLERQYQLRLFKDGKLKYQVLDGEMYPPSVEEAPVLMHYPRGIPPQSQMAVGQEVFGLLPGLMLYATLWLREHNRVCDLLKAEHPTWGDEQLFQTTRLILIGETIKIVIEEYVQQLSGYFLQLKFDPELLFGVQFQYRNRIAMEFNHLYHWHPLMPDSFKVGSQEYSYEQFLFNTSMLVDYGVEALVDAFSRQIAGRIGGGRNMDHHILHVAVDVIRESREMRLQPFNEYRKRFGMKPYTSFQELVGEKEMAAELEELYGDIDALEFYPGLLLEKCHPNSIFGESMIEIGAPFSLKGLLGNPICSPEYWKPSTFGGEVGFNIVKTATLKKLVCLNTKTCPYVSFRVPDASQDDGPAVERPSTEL

T1 sequence (P47989 whole entry): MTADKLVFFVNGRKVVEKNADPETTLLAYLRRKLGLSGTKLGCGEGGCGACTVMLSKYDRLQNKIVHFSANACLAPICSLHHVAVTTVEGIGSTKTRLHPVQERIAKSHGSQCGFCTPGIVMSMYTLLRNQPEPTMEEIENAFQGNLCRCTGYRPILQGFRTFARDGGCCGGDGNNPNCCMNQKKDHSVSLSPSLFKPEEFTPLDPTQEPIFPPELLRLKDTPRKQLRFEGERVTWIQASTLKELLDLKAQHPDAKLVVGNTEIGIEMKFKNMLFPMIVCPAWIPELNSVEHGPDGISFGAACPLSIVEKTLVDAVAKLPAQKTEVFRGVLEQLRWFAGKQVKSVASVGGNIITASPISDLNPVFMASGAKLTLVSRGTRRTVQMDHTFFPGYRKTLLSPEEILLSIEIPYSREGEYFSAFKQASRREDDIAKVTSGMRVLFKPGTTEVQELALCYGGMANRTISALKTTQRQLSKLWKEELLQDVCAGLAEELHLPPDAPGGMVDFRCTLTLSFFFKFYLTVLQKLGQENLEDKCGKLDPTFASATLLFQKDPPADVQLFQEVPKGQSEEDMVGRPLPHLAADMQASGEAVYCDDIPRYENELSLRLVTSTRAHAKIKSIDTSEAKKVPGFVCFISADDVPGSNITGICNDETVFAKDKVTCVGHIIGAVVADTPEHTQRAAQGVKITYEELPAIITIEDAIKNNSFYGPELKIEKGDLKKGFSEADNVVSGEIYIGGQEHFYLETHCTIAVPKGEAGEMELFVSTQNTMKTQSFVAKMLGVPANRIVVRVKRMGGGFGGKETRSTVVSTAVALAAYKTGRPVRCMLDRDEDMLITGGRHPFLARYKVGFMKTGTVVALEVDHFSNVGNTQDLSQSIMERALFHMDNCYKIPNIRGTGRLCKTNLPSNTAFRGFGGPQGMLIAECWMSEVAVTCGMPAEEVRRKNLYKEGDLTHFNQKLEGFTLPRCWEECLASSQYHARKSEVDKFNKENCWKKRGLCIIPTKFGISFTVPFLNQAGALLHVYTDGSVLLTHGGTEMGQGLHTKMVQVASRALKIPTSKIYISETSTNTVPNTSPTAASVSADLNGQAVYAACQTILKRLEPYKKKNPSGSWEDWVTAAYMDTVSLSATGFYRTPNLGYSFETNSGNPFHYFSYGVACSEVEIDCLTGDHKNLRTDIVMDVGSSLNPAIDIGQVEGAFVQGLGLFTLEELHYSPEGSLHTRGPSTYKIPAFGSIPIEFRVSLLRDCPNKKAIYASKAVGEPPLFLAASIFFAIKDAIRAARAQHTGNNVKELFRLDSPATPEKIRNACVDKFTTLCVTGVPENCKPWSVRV
Sequence of Prostaglandin G/H synthase 2 (Homo sapiens) (P35354 whole entry): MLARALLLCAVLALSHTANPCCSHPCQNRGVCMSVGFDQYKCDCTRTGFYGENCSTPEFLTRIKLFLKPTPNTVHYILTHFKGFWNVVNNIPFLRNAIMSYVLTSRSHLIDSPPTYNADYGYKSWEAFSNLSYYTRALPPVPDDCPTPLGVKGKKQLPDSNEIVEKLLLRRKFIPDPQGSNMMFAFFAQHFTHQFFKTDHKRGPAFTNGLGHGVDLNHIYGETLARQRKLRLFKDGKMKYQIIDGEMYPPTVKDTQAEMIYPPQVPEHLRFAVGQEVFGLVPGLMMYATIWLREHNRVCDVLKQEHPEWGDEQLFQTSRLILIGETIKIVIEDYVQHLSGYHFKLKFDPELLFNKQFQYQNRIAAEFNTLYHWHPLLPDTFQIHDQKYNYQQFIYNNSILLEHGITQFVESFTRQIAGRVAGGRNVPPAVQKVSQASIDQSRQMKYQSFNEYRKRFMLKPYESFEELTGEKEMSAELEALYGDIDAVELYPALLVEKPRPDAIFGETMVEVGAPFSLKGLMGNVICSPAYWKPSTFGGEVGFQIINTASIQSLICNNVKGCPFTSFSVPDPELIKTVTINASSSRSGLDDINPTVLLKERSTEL
Sequence of Polyunsaturated fatty acid 5-lipoxygenase (Homo sapiens) (P09917 whole entry): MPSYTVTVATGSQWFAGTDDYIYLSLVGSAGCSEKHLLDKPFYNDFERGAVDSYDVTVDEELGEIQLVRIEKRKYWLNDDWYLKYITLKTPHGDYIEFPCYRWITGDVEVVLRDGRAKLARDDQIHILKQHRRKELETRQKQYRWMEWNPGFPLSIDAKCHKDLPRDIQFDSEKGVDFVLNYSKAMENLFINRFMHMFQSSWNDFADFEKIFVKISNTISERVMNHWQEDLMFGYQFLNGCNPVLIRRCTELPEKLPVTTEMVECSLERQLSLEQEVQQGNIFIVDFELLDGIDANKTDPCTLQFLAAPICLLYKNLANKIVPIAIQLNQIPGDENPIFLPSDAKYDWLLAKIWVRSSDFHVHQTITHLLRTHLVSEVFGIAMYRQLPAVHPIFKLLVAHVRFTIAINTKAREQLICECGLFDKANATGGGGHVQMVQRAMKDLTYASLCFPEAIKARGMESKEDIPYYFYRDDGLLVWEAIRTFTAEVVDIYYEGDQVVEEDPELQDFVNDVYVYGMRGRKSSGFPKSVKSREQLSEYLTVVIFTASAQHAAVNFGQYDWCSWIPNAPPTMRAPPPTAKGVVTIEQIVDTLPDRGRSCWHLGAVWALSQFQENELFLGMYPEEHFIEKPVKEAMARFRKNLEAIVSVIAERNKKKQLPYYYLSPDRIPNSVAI
Sequence of Acetylcholinesterase (P22303 whole entry): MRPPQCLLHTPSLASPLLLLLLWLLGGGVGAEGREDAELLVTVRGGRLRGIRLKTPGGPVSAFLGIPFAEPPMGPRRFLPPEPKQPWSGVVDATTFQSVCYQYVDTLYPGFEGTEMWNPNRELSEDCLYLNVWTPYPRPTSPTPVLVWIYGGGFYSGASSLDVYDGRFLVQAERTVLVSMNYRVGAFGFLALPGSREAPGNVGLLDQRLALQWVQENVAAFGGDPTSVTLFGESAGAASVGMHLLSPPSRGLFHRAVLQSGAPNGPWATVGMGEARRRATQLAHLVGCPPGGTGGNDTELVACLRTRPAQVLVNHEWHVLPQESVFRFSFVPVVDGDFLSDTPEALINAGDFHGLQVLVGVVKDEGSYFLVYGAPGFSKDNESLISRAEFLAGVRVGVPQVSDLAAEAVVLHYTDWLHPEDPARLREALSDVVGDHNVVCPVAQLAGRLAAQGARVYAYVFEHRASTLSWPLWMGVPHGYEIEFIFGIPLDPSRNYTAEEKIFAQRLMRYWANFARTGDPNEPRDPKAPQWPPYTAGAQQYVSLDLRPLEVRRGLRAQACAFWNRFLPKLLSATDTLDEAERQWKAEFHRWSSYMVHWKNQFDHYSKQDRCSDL
Sequence of Cholinesterase (P06276 whole entry): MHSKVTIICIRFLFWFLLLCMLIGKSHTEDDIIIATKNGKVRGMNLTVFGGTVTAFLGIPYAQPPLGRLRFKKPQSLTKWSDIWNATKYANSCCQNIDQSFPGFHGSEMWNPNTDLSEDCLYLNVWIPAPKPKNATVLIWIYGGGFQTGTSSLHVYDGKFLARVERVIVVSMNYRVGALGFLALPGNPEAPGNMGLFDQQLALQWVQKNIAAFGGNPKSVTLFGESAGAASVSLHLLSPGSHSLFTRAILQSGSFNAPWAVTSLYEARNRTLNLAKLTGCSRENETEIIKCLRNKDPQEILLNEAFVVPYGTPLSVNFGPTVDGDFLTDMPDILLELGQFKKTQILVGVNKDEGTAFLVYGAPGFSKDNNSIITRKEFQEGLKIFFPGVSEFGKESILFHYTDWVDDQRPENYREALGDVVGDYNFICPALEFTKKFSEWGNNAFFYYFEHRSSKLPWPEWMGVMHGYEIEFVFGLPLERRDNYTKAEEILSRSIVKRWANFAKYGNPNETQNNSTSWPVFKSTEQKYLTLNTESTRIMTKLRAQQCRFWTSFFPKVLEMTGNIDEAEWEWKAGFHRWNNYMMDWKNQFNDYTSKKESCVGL

## O=CC1=C[C@@]2(O)CC/C=C\CCCCN3CC[C@@H]1[C@]1(C[C@@H]4/C=C\CCCCN4[C@H]12)C3 [IRCINAL]
[1]
  IC50: 1.4 µg/mL (≈ 3.41 µM)
[2]
  IC50: 4.8 µg/mL (≈ 11.7 µM)

## C=C1CC[C@@]23CC[C@@]45C(C2)[C@]4(CCN13)c1cc(OC)ccc1N5C(=O)OC
[3]
  IC50: 7.2 µg/mL (≈ 19.6 µM)
[4]
  IC50: 4.6 µg/mL (≈ 12.6 µM)

## CC1CC2C[C@]34C(=O)CCCN3CCC[C@@]2(O)C(=O)C14 (stereo partly drawn)
[1]
  IC50: > 10 µg/mL
[2]
  IC50: > 10 µg/mL

## COc1cc2c(cc1OC)-c1ccccc1CCN(C)C2
[5]
  Kb: 107 nM
[6]
  Kb: 102 nM

## CN1CCc2ccccc2-c2cc(O)c(O)cc2C1
[5]
  Kb: 20 nM
[6]
  Kb: 3020 nM

## COc1cc([C@H]2Oc3ccc4[nH]cc5c4c3[C@H]2C(=O)NCC5=O)ccc1O
[7]
  mortality at 24 h, 10 ug/ml: 90%

## COC(=O)C1=C2Nc3c(O)cccc3[C@]23CC[N+]2(C)C[C@H](C(C)=O)[C@H]1C[C@H]32 (stereo partly drawn)
[8]
  IC50: 9.2 µM
[9]
  IC50: 9.2 µM
[10]
  IC50: 9.2 µM
[11]
  IC50: 9.2 µM

## C[N@@+]12CC[C@]34c5ccccc5N5/C=C6\[C@@H]7N(/C=C(\[C@H]53)[C@H](C[C@@H]41)/C(=C\CO)C2)c1ccccc1[C@@]71CC[N@@+]2(C)C/C(=C/CO)[C@H]6C[C@@H]12
[12]
  LD: 0.8 mg/kg

## O=C1C[C@@H]2OCC=C3CN4CC[C@]56c7ccccc7N1[C@H]5[C@H]2[C@H]3C[C@H]46 [STRYCHNINE]
[13]
  LD50: 0.96 mg/kg

## C=C1c2[nH]c3ccccc3c2CN2CC[C@H]1/C(=C\C)C2 [APPARICINE]
[14]
  Ki: 2650 nM
[15]
  IC50: 650 nM
[16]
  EC50: 3.8 µg/mL (≈ 14.4 µM)

## C/C=C1/CN2CC[C@@H]1[C@](CO)(C(=O)OC)c1[nH]c3ccccc3c1C2
[17]
  MIC: > 128 µg/mL

## C=C1c2[nH]c3ccc(OC)cc3c2C2[C@@H](CC)C1CCN2C (stereo partly drawn)
[18]
  IC50: 180 µM
[19]
  IC50: 24 µM
[20]
  IC50: 11.9 µg/mL (≈ 40.1 µM)
[21]
  IC50: 0.75 µg/mL (≈ 2.53 µM)
[22]
  IC50: 279 µM
[23]
  Activity: 41.1 µM
[24]
  Activity: 20.9 µM

## CCC(=O)Oc1ccc([C@H]2Oc3ccc4[nH]cc5c4c3[C@@H]2C(=O)NCC5)cc1OC
[25]
  IC50: 36.6 µM

## CO[C@H]1/C=C/O[C@@]2(C)Oc3c(C)c(O)c4c(O)c(c(/C=N/N5CCN(C)CC5)c(O)c4c3C2=O)NC(=O)/C(C)=C\C=C\[C@H](C)[C@H](O)[C@@H](C)[C@@H](O)[C@@H](C)[C@H](OC(C)=O)[C@@H]1C [RIFAMPIN]
[26]
  MIC50: 0.5 µg/mL (≈ 0.608 µM)

## CC[C@@H]1C2CCN(C)C1c1c([nH]c3ccc(OC)cc13)C2=O (stereo partly drawn)
[27]
  IC50: 16.7 µM
[28]
  IC50: > 50 µg/mL

## C/C=C1\CN2CC[C@@H]1[C@](CO)(C(=O)OC)c1[nH]c3ccccc3c1C2
[29]
  inhibition: 60.8%
[30]
  inhibition: 63.7%
[31]
  IC50: 24.5 µM
[32]
  IC50: 32.6 µM
[33]
  IC50: > 100 µM
[34]
  inhibition: 49.4%
